Legend:
[1] = Oral absorption (amount of compound in rat serum by HPLC, area under curve); type: in vivo, Sprague-Dawley female rats; conditions: single dosage 160 mg/kg in water, 0.5 to 24 hours, average of 3 rats
ICR female mice = test: Acute toxicity, single oral dose in mice; conditions: mouse, in vivo
Description: The aromatic compounds of the formula (I) according to the present invention were orally administered to mice at the dose of 500 mg/kg, but no fatalities were observed over a period of one week.
Five-week-old ICR female mice (5 mice per group) were bred for acclimation for a week. Then, the compounds of the present invention were dissolved in water, and orally administered to the mice in a single dosage (500 mg/kg).

[2] = target: T1, angiotensin II receptor subtype 1 (AT1) (Oryctolagus cuniculus, UniProt P34976); test: Binding to receptors: angiotensin II receptor subtype 1 (AT1); set-up: species or system rabbits (adrenal glands); conditions: rabbit adrenal glands, tracer 3H-angiotensin II
T1 construct: receptor : from adrenal glands in rabbits; from tissue; host or cells: rabbit adrenal glands
T1 sequence (P34976 1-359): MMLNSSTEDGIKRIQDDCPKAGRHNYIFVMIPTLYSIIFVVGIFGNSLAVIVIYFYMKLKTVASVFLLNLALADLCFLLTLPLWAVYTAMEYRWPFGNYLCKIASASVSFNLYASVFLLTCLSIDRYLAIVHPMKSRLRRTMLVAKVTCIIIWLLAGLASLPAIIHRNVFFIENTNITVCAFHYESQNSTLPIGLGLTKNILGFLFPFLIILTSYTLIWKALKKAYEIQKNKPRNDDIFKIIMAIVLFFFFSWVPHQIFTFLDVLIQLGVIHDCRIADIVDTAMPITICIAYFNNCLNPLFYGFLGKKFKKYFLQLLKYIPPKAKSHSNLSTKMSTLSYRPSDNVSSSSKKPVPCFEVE

[3] = test system: kidney disease model rats; test: Action to lower blood pressure in kidney disease model rats (tail cuff); type: in vivo, Sprague-Dawley female rats; conditions: systolic, average of 8 rats, 20 mg/kg with drinking water, two days after administration; control 210
[4] = test system: kidney disease model rats; test: Renal function indicatory value in kidney disease model rats; type: in vivo, Sprague-Dawley female rats; conditions: 20 mg/kg/day with drinking water, six weeks; for Creatinine clearance: 24 hours urine, control 0.22; for Creatinine / Blood urea nitrogen: serum; for Creatinine: control 2.0; for Blood urea nitrogen: control 100

SMILES | AUC at 24 h [1] [ng·h/mL] | Number of deaths/number of survivals (ICR female mice) | inhibition at 100 µM [2] [%] | Blood Pressure [3] [mmHg] | Creatinine clearance [4] [mL/min] | Creatinine [4] [mg/dL] | Blood urea nitrogen [4] [mg/dL]
CCCCC(=O)N(Cc1ccc(C(=O)OCCCN(C)C)cc1)c1cc(C(=O)N2CCOCC2)ccc1N(C)C [Compound No. 2, 4-dimethylamino-3-N-[[[4-(3'-dimethylaminopropoxycarbonyl)phenyl]methyl]valeramido]benzoic acid morpholide] | 10700 | 0/5 | 14 | 200 | 0.33 | 1.3 | 78
CCCCCCC(=O)N(Cc1ccc(C(=O)O)cc1)c1cc(C(=O)N2CCN(C)CC2)ccc1N(C)C [Compound No. 13, 3-[[(4-carboxyohenyl)methyl]n-heptanamido]-4-dimethylaminobenzoic acid 4'-methylpiperazide] | 1460 | 0/5 | 0 | 208 | 0.32 | 1.5 | 77
